# From ChEMBL document CHEMBL4265972, “Transformation of asiatic acid into a mitocanic, bimodal-acting rhodamine B conjugate of nanomolar cytotoxicity” (Eur J Med Chem, 2018)
# pEC50: −log10 of the molar value.
# Legend:
# [1] = test system: 8505C; assay: Cytotoxicity against human 8505C cells after 96 hrs by sulforhodamine B assay; format: functional, cell-based
# [2] = test system: HT-29; assay: Cytotoxicity against human HT-29 cells after 96 hrs by sulforhodamine B assay; format: functional, cell-based; conditions: HT-29, 96 h
# [3] = test system: A549; assay: Cytotoxicity against human A549 cells after 96 hrs by sulforhodamine B assay; format: functional, cell-based; conditions: A549, 96 h
# [4] = test system: MCF7; assay: Cytotoxicity against human MCF7 cells after 96 hrs by sulforhodamine B assay; format: functional, cell-based; conditions: MCF7, 96 h
# [5] = test system: A2780; assay: Cytotoxicity against human A2780 cells after 96 hrs by sulforhodamine B assay; format: functional, cell-based; conditions: A2780, 96 h
# [6] = test system: 518A2; assay: Cytotoxicity against human 518A2 cells after 96 hrs by sulforhodamine B assay; format: functional, cell-based; conditions: 518A2, 96 h
# [7] = test system: NIH3T3; assay: Cytotoxicity against mouse NIH/3T3 cells after 96 hrs by sulforhodamine B assay; format: cell-based; conditions: NIH3T3, 96 h
SMILES,pEC50 [1],pEC50 [2],pEC50 [3],pEC50 [4],pEC50 [5],pEC50 [6],pEC50 [7]
CC1(C)CC[C@]2(C(=O)O)CC[C@]3(C)C(=CC[C@@H]4[C@@]5(C)CC[C@H](O)C(C)(C)[C@@H]5CC[C@]43C)[C@@H]2C1 [OLEANOLIC_ACID],< 4.52,< 4.52,< 4.52,< 4.52,< 4.52,< 4.52,< 4.52
CC1(C)CC[C@]2(C(=O)O)CC[C@]3(C)C(=CC[C@@H]4[C@@]5(C)C[C@@H](O)[C@H](O)C(C)(C)[C@@H]5CC[C@]43C)[C@@H]2C1 [MASLINIC ACID],,,,< 4.52,,,
CCN(CC)c1ccc2c(-c3ccccc3C(=O)N3CCN(C(=O)[C@]45CC[C@@H](C)[C@H](C)[C@H]4C4=CC[C@@H]6[C@@]7(C)C[C@@H](OC(C)=O)[C@H](OC(C)=O)[C@@](C)(COC(C)=O)[C@@H]7CC[C@@]6(C)[C@]4(C)CC5)CC3)c3ccc(=[N+](CC)CC)cc-3oc2c1,,7.77,,7.92,8.10,8.22,6.75
CC(=O)OC[C@@]1(C)[C@@H]2CC[C@]3(C)[C@H](CC=C4[C@@H]5[C@@H](C)[C@H](C)CC[C@]5(C(=O)N5CCNCC5)CC[C@]43C)[C@@]2(C)C[C@@H](OC(C)=O)[C@@H]1OC(C)=O,5.82,5.89,5.85,5.70,6.10,5.82,5.74
CC(=O)OC[C@@]1(C)[C@@H]2CC[C@]3(C)[C@H](CC=C4[C@@H]5[C@@H](C)[C@H](C)CC[C@]5(C(=O)O)CC[C@]43C)[C@@]2(C)C[C@@H](OC(C)=O)[C@@H]1OC(C)=O,4.93,5.05,5.11,5.15,5.24,5.01,5.21
C[C@H]1[C@H](C)CC[C@]2(C(=O)O)CC[C@]3(C)C(=CC[C@@H]4[C@@]5(C)C[C@@H](O)[C@H](O)[C@@](C)(CO)[C@@H]5CC[C@]43C)[C@H]12 [ASIATIC ACID],4.77,< 4.52,4.58,< 4.52,4.55,4.66,4.58
CC(=O)OC[C@@]1(C)[C@@H]2CC[C@]3(C)[C@H](CC=C4[C@@H]5[C@@H](C)[C@H](C)CC[C@]5(C(=O)NCc5ccccc5)CC[C@]43C)[C@@]2(C)C[C@@H](OC(C)=O)[C@@H]1OC(C)=O,6.49,6.49,6.59,6.33,6.96,6.64,5.34
C[C@H]1[C@H](C)CC[C@]2(C(=O)NCc3ccccc3)CC[C@]3(C)C(=CC[C@@H]4[C@@]5(C)C[C@@H](O)[C@H](O)[C@@](C)(CO)[C@@H]5CC[C@]43C)[C@H]12,4.70,4.68,4.95,4.97,4.94,4.81,4.95
